This note sets out measurements from patent US12144886B2, “Perineural administration of resiniferatoxin for treatment of maladaptive pain” (Sorrento Therapeutics, Inc., priority 2018, dated 2024).

In the series the test system is Crl:CD(SD) Sprague Dawley rats. The experiment in a line: Single dose nerve block injection safety study in rats with 14-day recovery. It is filed as in vivo, rat. The conditions noted are these: for Food consumption: Days 2 to 7. The text has this: This study was directed to determining the safety of administering RTX, when given as a nerve block injection as a single dose to rats.
119 male and 119 female Crl:CD(SD) Sprague Dawley rats were obtained from Charles River Laboratories, Raleigh, NC. The animals were 10 weeks old and weighed between 212 and 482 g at the initiation of dosing.
The nerve block injection doses were given into the right thigh. The animals were temporarily restrained for dose administration. Animals were sedated via isoflurane inhalation for dose administration. The day of dosing for each animal was designated as Day 1. A necropsy was conducted for a recovery study animal that died on study, and specified tissues were retained. The animal was refrigerated prior to necropsy to minimize autolysis.
Toxicokinetic animals surviving until scheduled euthanasia were euthanized by carbon dioxide inhalation.
Main study and recovery animals were subjected to a complete necropsy examination. A board-certified veterinary pathologist was available for scheduled necropsies.
All statistical tests were conducted at the 5% significance level. All pairwise comparisons were conducted using two-sided tests.
The groups were compared using an overall one-way ANOVA F-test if Levene's test was not significant or the Kruskal-Wallis test if it was significant. […] Datasets with two groups were compared using a Dunnett's test (equivalent to t-test in Nevis 2012 tables) or Dunn's test (equivalent to Wilcoxon Rank-Sum test in Nevis 2012 tables).

[1] abbreviates: 10 μg, both sexes, terminal euthanasia.

Structures are written as SMILES.

For the compound `C=C(C)[C@]12C[C@@H](C)[C@@]34O[C@](Cc5ccccc5)(O[C@@H]1[C@@H]3C=C(COC(=O)Cc1ccc(O)c(OC)c1)C[C@]1(O)C(=O)C(C)=C[C@@H]41)O2` [RTX, resiniferatoxin], the Food consumption entry was “statistically significant decrease” (2.5 μg, females only) and “statistically significant decrease” (10 μg, males only). Also, the Unscheduled death entry (2.5 μg, one recovery study female, unrelated to test article, attributed to aspiration-related foreign material/inflammation in the lung) was “found dead on Day 2”. For the same compound, where the note is “10 μg”, the “Microscopic change in the skeletal muscle” value is on record as “myofiber degeneration/necrosis”. Also, the Spleen microscopic correlate result (10 μg, both sexes) is reported as “minimal decreased lymphoid cellularity of the white pulp”. In addition, the Thymus microscopic correlate result (10 μg, both sexes) is on record as “minimal to mild decreased lymphoid cellularity”. Under setting [1], the Spleen weights result is “Statistically significant lower absolute and relative spleen weights”. In addition, the Thymic weights entry under setting [1] was “Lower absolute and relative thymic weights”. Moreover, the Neutrophils entry (10 μg, females only) is “statistically significant increase that remained increased after the recovery period”. In addition, the “Mean body weight gain” value is, setting by setting: (10 μg, females, Days 1 to 14) “statistically significant decrease”; (10 μg, males, Days 1 to 2) “statistically significant decrease”. Under “>2.5 μg”, the “Microscopic change in the mammary gland (non-adverse)” value is reported as “single cell necrosis”. Besides, the “Test article-related organ weight changes at end of recovery” value (end of the recovery period (Day 15)) is on record as “not observed”. In addition, the “Reversibility of microscopic changes” value (following a 14-day recovery period) was “fully recovered”. Also, the Clinical chemistry parameters result (rats) is recorded as “no adverse RTX (resiniferatoxin)-related changes”. Moreover, the “Tolerability as nerve block injection” value (rats, 0.625, 2.5, and 10 μg single dose) is on record as “well tolerated”. The “Differences in hematology, coagulation, clinical chemistry and urinalysis parameters” value (rats, all dose groups) is recorded as “not considered adverse or were not considered vehicle or test article related”. For the same compound, the “no-observed-adverse-effect level (NOAEL)” value (rats, single nerve block injection) turned out to be 10 µg. In addition, under “single dose 0, 0.625, 2.5, or 10 μg”, the “Mortality, organ weight, gross observations” value is reported as “no test article-related mortality, differences in organ weight, or gross observations”. Also, for the setting “terminal euthanasia or recovery period animals”, the Gross findings entry was “No test article-related gross findings”.
